Laboratory results published in US20080234188A1, “Antimicrobial Peptides” (The Hospital for Sick Children, priority 2001, published 2008).
Converted amounts (≈) assume the structure as drawn. Where a SMILES comes first, the peptide text is derived from it.

How the values were obtained:
E. faecalis ATCC29212 = format: cell-based, Enterococcus faecalis
Source text: (§1) The bacterial strains used were E. coli C498, E. coli C500, Escherichia coli UB1005 and its antibiotic supersusceptible derivative DC2 (22); a clinical isolate of Staphylococcus epidermidis (C621); coryneform bacterial strain Corynebacterium xerosis (C875); and E. coli ATCC 25922, Staphylococcus aureus ATCC 25923, Enterococcus faecalis ATCC 29212, Bacillus subtilis ATCC 6633 and Pseudomonas aeruginosa ATCC 27853, all from American Type Culture Collection.
(§2) Peptide antibacterial activity was assessed by the method of R. Hancock et al. (Wu & Hancock (1999), J. Biol. Chem., v. 274, pp. 29-35). Test strains of bacteria from Mueller Hinton agar (MHA) plates were inoculated into 5 ml Mueller Hinton Broth (MHB) in tubes and grown overnight at 37° C. on a shaker (180 rpm). Serial dilutions of test peptides (at 10 times the required test concentrations) were made in 0.01% acetic acid, 0.2% BSA, in polypropylene or coated glass tubes as follows: the test peptide was (a) dissolved in distilled water at 20 times the required maximum concentration (enough final volume for all tests to be performed on a given day); (b) diluted into an equal volume of 0.02% acetic acid, 0.4% BSA to give 10 times the required maximum concentration; (c) serial doubling dilutions were performed in 0.01% acetic acid, 0.2% BSA to provide serial dilutions of peptides at 10 times the required test concentrations, e.g., 640, 320, 160, . . . 2.5 μg/ml. (No deleterious effects of long-term storage of peptides in these media have been detected). Overnight bacterial cultures were diluted in MHB to give 2−7×10^5 colony forming units/ml. Bacterial suspension (100 μl) was dispensed in each well; controls without bacteria were maintained in parallel. To each well was added 11 μl of 10× test peptide and plates were incubated at 37° C. for 18-24 hours, and checked again at 40-48 hours. Plates were read visually and at 600 nm in a microplate reader (Molecular Devices).
(§3) A further number of the peptides of the invention were tested for antimicrobial activity against a range of Gram-positive and Gram-negative bacteria by the assay described immediately before Example 1.

S. aureus ATCC25923 = format: cell-based, Staphylococcus aureus
Source text: as §1, §2, §3

[1] = tested on: Corynebacterium xerosis (C875); format: cell-based
Summary of the method: (§4)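 Broth microdilution in Mueller Hinton Broth, inoculum 2−7×10^5 CFU/ml. Peptides serially doubled in 0.01% acetic acid, 0.2% BSA and added at 10× final concentration. Incubation 37° C for 18-24 h, rechecked at 40-48 h; growth read visually and at 600 nm.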

[2] = tested on: Staphylococcus epidermidis (C621); format: cell-based; settings: C621
Summary of the method: as §4

E. coli DC2 = experiment: Assay of antibacterial activity (MIC), E. coli DC2; format: cell-based, Escherichia coli; settings: Table 5A
Summary of the method: (§5)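 MIC by microdilution: MHB, 2−7×10^5 CFU/ml, peptide 10× stocks in 0.01% AcOH/0.2% BSA (doubling series), 37° C 18-24 h, recheck 40-48 h, visual + OD600 read.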

P. aeruginosa ATCC27853 = format: cell-based, Pseudomonas aeruginosa
Source text: as §1, §2, §3

E. coli ATCC25922 = format: cell-based
Source text: as §1, §2, §3

[3] = tested on: C500: E. coli, antibiotic strain; format: cell-based; settings: C500: , antibiotic strain
Summary of the method: (§6)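 Broth microdilution in Mueller Hinton Broth, 2−7×10^5 CFU/ml, peptides added from 10× stocks serially diluted in 0.01% acetic acid, 0.2% BSA. Incubated at 37° C for 18-24 hours, rechecked at 40-48 hours; growth read visually and at 600 nm.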

[4] = tested on: C498: E. coli, wild type strain; format: cell-based; settings: C498: , wild type strain
Summary of the method: as §6

E. coli UB1005 = format: cell-based, Escherichia coli; settings: UB1005
Summary of the method: as §5

B. subtilis ATCC6633 = format: cell-based, Bacillus subtilis
Source text: as §1, §2, §3

Human RBC = format: cell-based
Summary of the method: (§7)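 Washed rabbit or human erythrocytes (4% v/v in PBS pH 7.3) incubated with peptide dilutions 1 h at 37° C. Hemoglobin release read at 540 nm in supernatant, relative to PBS control and 0.1% Triton X-100 as 100% lysis; peptides tested at […].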

Rabbit RBC = format: cell-based
Summary of the method: as §7

## C[C@H](NC(=O)[C@H](C)NC(=O)[C@H](Cc1ccccc1)NC(=O)[C@H](C)NC(=O)[C@H](C)NC(=O)[C@H](CCCNC(=N)N)NC(=O)[C@H](CCCNC(=N)N)NC(=O)[C@@H](N)CCCNC(=N)N)C(=O)N[C@@H](Cc1c[nH]c2ccccc12)C(=O)N[C@@H](C)C(=O)N[C@@H](C)C(=O)N[C@@H](Cc1ccccc1)C(=O)N[C@@H](C)C(=O)N[C@@H](C)C(=O)N[C@@H](CCCNC(=N)N)C(=O)N[C@@H](CCCNC(=N)N)C(=O)N[C@@H](CCCNC(=N)N)C(N)=O [Peptide F17R, RRRAAFAAWAAFAARRR-NH2] (H-RRRAAFAAWAAFAARRR-NH2; N-terminus assumed)
E. faecalis ATCC29212
  MIC E. faecalis ATCC29212: >32 µM
S. aureus ATCC25923
  MIC S. aureus ATCC25923: >32 µM
[1]
  MIC C875: 1 µM (≈ 2 µg/mL)
  MIC C. xerosis C875: 1 µM (≈ 2 µg/mL)
[2]
  MIC S. epidermidis C621: 4 µM (≈ 8.01 µg/mL)
E. coli DC2
  MIC E. coli DC2: 1 µM (≈ 2 µg/mL)
P. aeruginosa ATCC27853
  MIC P. aeruginosa ATCC27853: 16 µM (≈ 32.1 µg/mL)
E. coli ATCC25922
  MIC E. coli ATCC25922: 8 µM (≈ 16 µg/mL)
[3]
  MIC C500: 0.5 µM (≈ 1 µg/mL)
[4]
  MIC C498: 2 µM (≈ 4.01 µg/mL)
E. coli UB1005
  MIC E. coli UB1005: 2 µM (≈ 4.01 µg/mL)
B. subtilis ATCC6633
  MIC B. subtilis ATCC6633: 2 µM (≈ 4.01 µg/mL)
Human RBC
  Human RBC (% lysis) 50 μM: 0 % lysis
  Human RBC (% lysis) 200 μM: 0 % lysis
Rabbit RBC
  Rabbit RBC (% lysis) 50 μM: 0 % lysis
  Rabbit RBC (% lysis) 200 μM: 2 % lysis
